Source: US20140161729A1, “COFLUORONS AND METHODS OF MAKING AND USING THEM” (CORNELL UNIVERSITY, priority 2011, published 2014)

How the values were obtained:
[1] = Fluorescence measurements of cofluoron models (linker element monomers and their multimers with boronic acids); format: physicochemical; details: for fluorescence change on addition to linker element SL1 (2-hydroxy-3-naphthalenecarboxamide) / fluorescence change on addition to linker element SL3 (gallic acid ethanolamide): boronic acid 300 μM; for fluorescence change on addition to linker element SL1 (2-hydroxy-3-naphthalenecarboxamide): SL1 100 μM, FIG. 6A; for fluorescence change on addition to linker element SL3 (gallic acid ethanolamide): SL3 100 μM, FIG. 6B
human mast cell line = experiment: Intracellular fluorescence of cofluorons (microscopy under UV excitation); format: cell-based; details: 100 μM (each) cofluoron monomer
Protocol: Human mast cell β2-tryptase containing cells, grown in standard media, were incubated with 100 μM monomer 1 for 15 minutes at room temperature, followed by the addition of 100 μM monomer 2. Stock concentrations of cofluorons, 50 mM in DMSO, were diluted in media immediately before use. For localization studies, 10.5% PEG and 0.0005% berberine were added to costain mast cell granules. Fluorescent signals were detected using an inverted CKX41 Olympus microscope under UV excitation and an 100× oil immersion lens. Images were recorded using an Olympus DP20 digital camera.

[2] = Fluorescence measurements of cofluoron monomers and multimers without target; format: physicochemical; details: for maximum fluorescence emission / wavelength of maximum emission: 100 μM (each), 0.1M phosphate pH 7.4, 100 μM EDTA, excited at 300 nM
Protocol: The fluorescence properties of cofluorons were measured in 0.1M HEPES or 0.1M phosphate buffer at pH 7.4 in 96- or 384-well black plates using a Molecular Dynamics SpectraMax M5 plate reader. Cofluoron samples were excited at discrete wavelengths and the fluorescence emission was scanned across a range of wavelengths (between 400 and 750 nm). The fluorescence properties of individual cofluoron monomers, as well as the fluorescent properties of cofluoron multimers formed by association of different combinations of cofluoron monomers, were tested and compared.
Fluorescence emission spectra were recorded for cofluoron monomers T147 and T27F individually at a concentration of 100 μM as well as in combination where each cofluoron monomer was at a concentration of 100 μM, in a 0.1M phosphate buffer at pH 7.4 containing 100 μM EDTA. The samples were excited at 300 nM and fluorescence emissions were measured between 300-750 nm on a Spectramax M5 spectrofluorometer. […] The fluorescence emission was enhanced to 4062 RFU and the emission wavelength shifted to 420 nm when the two cofluoron monomers were combined (See FIG. 19).
FIGS. 21 through 34 show the results of fluorescent measurements on the monomers T27 or T27F containing a dihydroxy moiety and multimers formed by mixing the dihydroxy compound with various monomer binding partners containing a boronic acid. These multimers have increased affinity for human mast cell β2-tryptase as compared to the monomers. The fluorescence properties of cofluorons were measured 0.1M phosphate buffer at pH 7.4 containing either 100 or 200 μM EDTA, in 96- or 384-well black plates using a Molecular Dynamics SpectraMax M5 plate reader. Cofluoron samples were excited at discrete wavelengths and the fluorescence emission was scanned across a range of wavelengths (between 400 and 750 nm).

Tryptase = Tryptase (Homo sapiens, UniProt P20231); experiment: Fluorescence of cofluoron pairs in the presence or absence of Tryptase; format: binding; details: phosphate buffer pH 7.4, 200 mM NaCl, excited at 360 nm
Tryptase, sequence (P20231 31-275): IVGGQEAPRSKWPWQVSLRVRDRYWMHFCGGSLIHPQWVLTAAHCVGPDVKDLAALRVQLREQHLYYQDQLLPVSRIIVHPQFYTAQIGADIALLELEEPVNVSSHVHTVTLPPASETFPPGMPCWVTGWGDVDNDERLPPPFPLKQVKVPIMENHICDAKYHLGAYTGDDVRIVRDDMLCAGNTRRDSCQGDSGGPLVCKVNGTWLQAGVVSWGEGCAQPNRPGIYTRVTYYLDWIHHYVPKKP
Protocol: The fluorescence emission measurements on cofluorons binding to the target tryptase were measured in 0.1M HEPES or 0.1M phosphate buffer at pH 7.4 in 96- or 384-well black plates using a Molecular Dynamics SpectraMax M5 plate reader. Cofluoron samples were excited at discrete wavelengths and the fluorescence emission was scanned across a range of wavelengths (between 400 and 750 nm). The fluorescence properties of cofluoron monomers and cofluoron multimers in the presence of 3 μM tryptase as well as in the absence of tryptase were measured and compared.
To test whether the cofluorons retained their fluorescence when binding to the target Tryptase, fluorescence were measured on the cofluoron multimers formed by mixing 6 μM T43 with 6 μM T34, T11, T35, and T37, respectively, in the presence or absence of 5 μM Tryptase, in aqueous 50 μM phosphate buffer (pH 7.4) containing 200 mM NaCl. Excitation was at 360 nm, and the portion of emission containing meaningful signal is between 400 nm and 550 nm.

[3] = target: human mast cell β2-tryptase (Homo sapiens, UniProt P20231); experiment: Binding of cofluoron monomers and dimers to tryptase (IC50, affinity); details: 1:1 combination with T27 or T27F
human mast cell β2-tryptase, sequence (P20231 31-275): as above

[4] = 100 μM 2-hydroxy-3-naphthalenecarboxamide + 300 μM boronic acid, 0.1M phosphate pH 7.4, 50% DMSO, excited at 350 nm

## CN(C)c1ccc(B(O)O)cn1 [2-(N,N-dimethylamino)pyridine-5-boronic acid]
[1]; 100 μM 7,8-dihydroxy-4-methylcoumarin + 300 μM boronic acid, 0.1M phosphate pH 7.4, 50% DMSO, excitation 350 nm, emission 520 nm
  increase in fluorescence emission intensity of 7,8-dihydroxy-4-methylcoumarin on forming oligomer with boronic acid partner: did not provide any enhanced signal

## OCc1ccccc1B(O)O [2-(hydroxymethyl)phenylboronic acid]
[1]; 100 μM methyl 3,4,5-trihydroxybenzoate + 300 μM boronic acid, 0.1M phosphate pH 7.4, 50% DMSO, excited at 350 nm
  enhancement of fluorescent emission signals at 460 nm over monomer methyl 3,4,5-trihydroxybenzoate: about 7 fold

## OB(O)c1ccccc1F [2-fluorophenylboronic acid]
[1]; multimer with 3,4,5-trihydroxybenzamide, 100 μM each, 0.1M HEPES pH 7.9, 50% DMSO, excited at 340 nm
  fluorescent emission intensity at 390 nm, fold higher than 3,4,5-trihydroxybenzamide alone: 10 fold

## OB(O)c1cccnc1F [2-fluoropyridine-3-boronic acid]
[1]; [4]
  enhancement of fluorescent emission signal at 420 nm over monomer 2-hydroxy-3-naphthalenecarboxamide: more than 80 fold

## NC(=O)c1cc2ccccc2cc1O [2-hydroxy-3-naphthalenecarboxamide, 2-Hydroxy-3-naphthalenecarboxamide]
[1]; 2-hydroxy-3-naphthalenecarboxamide 100 μM, alone or with 300 μM boronic acids, 0.1M phosphate pH 7.4, 50% DMSO, excited at 350 nm
  fluorescent emission maximum: 500 nm
[1]; 2-hydroxy-3-naphthalenecarboxamide alone or with boronic acids, phosphate pH 7.4, absence of DMSO, excited at 350 nm
  fluorescent emission maximum: about 510 nm

## OB(O)c1cccnc1F [2b, 2-fluoropyridine-3-boronic acid]
[1]
  fluorescence change on addition to linker element SL1 (2-hydroxy-3-naphthalenecarboxamide): stronger fluorescent signal, as well as a fluorescent emission wavelength shift to a lower wavelength
  fluorescence change on addition to linker element SL3 (gallic acid ethanolamide): stronger fluorescent signal, as well as a fluorescent emission wavelength shift to a higher wavelength

## OB(O)c1cc(F)cc(F)c1 [2c, 3,5-difluorophenylboronic acid]
[1]
  fluorescence change on addition to linker element SL1 (2-hydroxy-3-naphthalenecarboxamide): stronger fluorescent signal, as well as a fluorescent emission wavelength shift to a lower wavelength
  fluorescence change on addition to linker element SL3 (gallic acid ethanolamide): stronger fluorescent signal, as well as a fluorescent emission wavelength shift to a higher wavelength

## OB(O)c1cc2ccccc2o1 [2d, benzofuran-2-boronic acid]
[1]
  fluorescence change on addition to linker element SL1 (2-hydroxy-3-naphthalenecarboxamide): stronger fluorescent signal, as well as a fluorescent emission wavelength shift to a lower wavelength
  fluorescence change on addition to linker element SL3 (gallic acid ethanolamide): stronger fluorescent signal, as well as a fluorescent emission wavelength shift to a higher wavelength

## OB(O)c1cc(F)cc(F)c1 [3,5-difluorophenylboronic acid]
[1]; [4]
  enhancement of fluorescent emission signal at 420 nm over monomer 2-hydroxy-3-naphthalenecarboxamide: about 40 fold
[1]; 100 μM 2-hydroxy-3-naphthalenecarboxamide + 300 μM boronic acid, phosphate pH 7.4, absence of DMSO, excited at 350 nm
  fluorescent signal enhancement of multimer with 2-hydroxy-3-naphthalenecarboxamide: 30 fold

## Cl.NCc1cccc(C2CCN(C(=O)/C=C/c3ccc(O)c(O)c3)CC2)c1 [T24, (E)-1-(4-(3-(aminomethyl)phenyl)piperidin-1-yl)-3-(3,4-dihydroxyphenyl)prop-2-en-1-one hydrochloride]
Human mast cell line
  fluorescent staining of cells: somewhat brighter staining

## NCc1ccc(F)c(C2CCN(C(=O)c3cccc4cc(O)c(O)cc34)CC2)c1 [T27F]
[2]
  maximum fluorescence emission: 380 RFU
  wavelength of maximum emission: 520 nm

## NCc1cccc(C2CCN(C(=O)/C=C/c3cccc(B(O)O)c3)CC2)c1 [T34]
Tryptase; 6 μM each
  fluorescent signal of dimer with T43 in the absence of tryptase: hardly any fluorescent signal
Tryptase; pair with T43, 6 μM each, 5 μM Tryptase
  fluorescent signal enhancement in the presence of tryptase versus in the absence of tryptase: 3 fold

## NCc1cccc(C2CCN(C(=O)c3cccc4sc(B(O)O)cc34)CC2)c1 [T37]
[2]; 100 μM T43 + 100 μM partner, 0.1M phosphate pH 7.4 aqueous, excited at 360 nm
  fluorescent signal enhancement of multimer formed with T43, among all multimers tested: strongest fluorescent signal enhancements

## NCc1cccc(C2CCN(C(=O)/C=C/c3cc(O)c(O)c(O)c3)CC2)c1 [T43]
Tryptase; 6 μM
  fluorescent signal between 400 nm and 550 nm, monomer without boronic acid partner: essentially no fluorescent signal
[2]; T43 100 μM, alone or with 100 μM boronic acid partners, 0.1M phosphate pH 7.4 aqueous, excited at 360 nm
  emission peak: 440 nm

## CN(Cc1ccccc1B(O)O)c1ccc(C(=O)N2CCC(c3cccc(CN)c3)CC2)cc1 [T147, (2-(((4-(4-(3-(aminomethyl)phenyl)piperidine-1-carbonyl)phenyl)(methyl)amino)methyl)phenyl)boronic acid]
[3]
  affinity to human β-tryptase of dimer versus monomers: higher affinity to human β-tryptase than either monomer
[2]
  maximum fluorescence emission: 194 RFU
  wavelength of maximum emission: 390 nm

## OB(O)c1cc2ccccc2o1 [benzofuran-2-boronic acid]
[1]; [4]
  enhancement of fluorescent emission signal at 420 nm over monomer 2-hydroxy-3-naphthalenecarboxamide: about 40 fold

## COC(=O)c1cc(O)c(O)c(O)c1 [methyl 3,4,5-trihydroxybenzoate]
[1]; methyl 3,4,5-trihydroxybenzoate 100 μM, alone or with 300 μM boronic acids, 0.1M phosphate pH 7.4, 50% DMSO, excited at 350 nm
  fluorescent emission peak: about 390 nm
